Experiment [1] concerns the target purified human plasma kallikrein (Homo sapiens (Human), UniProt P03952). The experiment can be described thus: Plasma kallikrein enzyme inhibition assay (chromogenic substrate S-2302). Type of experiment: biochemical.
Procedure: The effectiveness of compounds of the present invention as inhibitors of the coagulation Factors XIa, VIIa, IXa, Xa, XIIa, plasma kallikrein or thrombin, can be determined using a relevant purified serine protease, respectively, and an appropriate synthetic substrate. The rate of hydrolysis of the chromogenic or fluorogenic substrate by the relevant serine protease was measured both in the absence and presence of compounds of the present invention. […] A decrease in the rate of absorbance or fluorescence change in the presence of inhibitor is indicative of enzyme inhibition. […] The results of this assay are expressed as the inhibitory constant, Ki.
Values of Ki were determined by allowing the protease to react with the substrate in the presence of the inhibitor.
The following relationships were used to calculate Ki values: (Vmax*S)/(Km+S); (vo−vs)/vs=I/(Ki(1+S/Km)) for a competitive inhibitor with one binding site; or vs/vo=A+((B−A)/1+((IC50/(I)n))); and Ki−IC50/((1+S/Km) for a competitive inhibitor where:
The target in experiment [2] is purified human Factor XIa (Homo sapiens (Human), UniProt P03951). The experiment can be described thus: Factor XIa enzyme inhibition assay (chromogenic substrate S-2366).
[3] abbreviates: read-out: Factor XIa Ki, measured at 25° C.
[4] abbreviates: measured at 25° C. (no asterisk).
Setting [5] is: measured at 25° C. (no asterisk), TFA salt.
Where [6] appears, read: read-out: Factor XIa Ki, measured at 25° C., TFA salt.

Structures can show the parent of a compound that is named as a salt. Where two headings read alike, the source gives them in different places.

Chain of purified human Factor XIa (P03951 388-625): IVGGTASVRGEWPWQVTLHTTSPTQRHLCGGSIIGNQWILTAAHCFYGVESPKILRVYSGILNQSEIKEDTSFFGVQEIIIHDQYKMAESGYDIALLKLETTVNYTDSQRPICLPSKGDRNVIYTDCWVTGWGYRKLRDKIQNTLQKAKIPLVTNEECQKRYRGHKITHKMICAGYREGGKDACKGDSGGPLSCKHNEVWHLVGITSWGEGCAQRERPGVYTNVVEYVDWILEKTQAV
Chain of purified human Factor XIa (P03951 19-387 partner): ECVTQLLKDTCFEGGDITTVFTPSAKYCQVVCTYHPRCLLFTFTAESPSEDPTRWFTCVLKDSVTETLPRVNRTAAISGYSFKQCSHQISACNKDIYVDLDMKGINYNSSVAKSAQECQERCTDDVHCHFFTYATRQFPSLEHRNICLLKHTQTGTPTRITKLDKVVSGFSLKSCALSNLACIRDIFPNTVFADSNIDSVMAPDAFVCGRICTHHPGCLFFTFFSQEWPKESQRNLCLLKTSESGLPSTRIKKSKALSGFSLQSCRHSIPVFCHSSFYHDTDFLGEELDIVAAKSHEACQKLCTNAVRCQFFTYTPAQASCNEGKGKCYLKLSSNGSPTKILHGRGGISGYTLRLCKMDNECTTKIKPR
Chain of purified human plasma kallikrein (P03952 391-638): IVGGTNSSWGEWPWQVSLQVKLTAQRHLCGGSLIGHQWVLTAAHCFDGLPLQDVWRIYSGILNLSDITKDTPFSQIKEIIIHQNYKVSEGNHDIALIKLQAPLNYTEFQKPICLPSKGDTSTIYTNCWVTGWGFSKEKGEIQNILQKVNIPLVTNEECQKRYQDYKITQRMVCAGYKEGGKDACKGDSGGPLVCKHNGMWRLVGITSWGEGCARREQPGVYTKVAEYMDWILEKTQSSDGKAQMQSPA
Chain of purified human plasma kallikrein (P03952 20-390 partner): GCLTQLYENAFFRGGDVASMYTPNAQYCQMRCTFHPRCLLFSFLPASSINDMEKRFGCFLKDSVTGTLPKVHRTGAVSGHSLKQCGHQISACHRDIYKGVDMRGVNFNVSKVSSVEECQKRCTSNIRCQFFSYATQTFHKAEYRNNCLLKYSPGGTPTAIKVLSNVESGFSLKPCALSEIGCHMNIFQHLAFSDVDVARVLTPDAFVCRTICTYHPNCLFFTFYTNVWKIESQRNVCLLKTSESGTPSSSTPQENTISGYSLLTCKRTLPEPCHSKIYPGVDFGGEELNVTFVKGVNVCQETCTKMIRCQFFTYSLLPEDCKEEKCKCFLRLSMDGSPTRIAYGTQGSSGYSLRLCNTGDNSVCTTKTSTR

Turning to `COC1CCN(c2cccc3c2CCN(C(=O)c2cn(-c4cccc(Cl)c4F)nn2)[C@@H]3C(=O)Nc2ccc(CO)cc2)CC1` [Example 122, (S)-2-(1-(3-Chloro-2-fluorophenyl)-1H-1,2,3-triazole-4-carbonyl)-N-(4-(hydroxymethyl)phenyl)-5-(4-methoxypiperidin-1-yl)-1,2,3,4-tetrahydroisoquinoline-1-carboxamide], the Ki turned out to be 99.8 nM in experiment [1] (measured at 37° C. (*)) and 16.8 nM in experiment [2] (setting [3]).
As for `CNC(=O)c1ccc(-c2cccc3c2CCN(C(=O)c2cn(-c4cccc(Cl)c4F)nn2)[C@H]3C(=O)Nc2ccc(C(=O)O)cc2)cn1` [Example 45, (R)-4-(2-(1-(3-Chloro-2-fluorophenyl)-1H-1,2,3-triazole-4-carbonyl)-5-(6-(methylcarbamoyl)pyridin-3-yl)-1,2,3,4-tetrahydroisoquinoline-1-carboxamido)benzoic acid, TFA salt], the Ki in experiment [1] (setting [4]) amounted to 364 nM; in experiment [2] (setting [3]) it was 20.6 nM.
Take `COC1CCN(c2cccc3c2CCN(C(=O)c2cn(-c4cccc(Cl)c4F)cn2)C3C(=O)Nc2ccc(C(=O)O)cc2)CC1` (racemic) [Example 271, 4-(2-(1-(3-chloro-2-fluorophenyl)-1H-imidazole-4-carbonyl)-5-(4-methoxypiperidin-1-yl)-1,2,3,4-tetrahydroisoquinoline-1-carboxamido)benzoic acid, TFA salt]: the Ki is 7.65 nM in experiment [1] (setting [4]) and less than 5 nM in experiment [2].
`O=C(Nc1ccc2cnccc2c1)C1c2cccc(-c3cncnc3)c2CCN1C(=O)c1cn(-c2cccc(Cl)c2F)nn1` (centres unmarked) [Example 130, 2-(1-(3-chloro-2-fluorophenyl)-1H-1,2,3-triazol-4-carbonyl)-N-(isoquinolin-6-yl)-5-(pyrimidin-5-yl)-1,2,3,4-tetrahydroisoquinoline-1-carboxamide, TFA salt]: the values for the Ki in experiment [1] (measured at 37° C. (*)) and in experiment [2] (setting [3]) were 126 nM and 28.3 nM, respectively.
Regarding `COC1CCN(c2cccc3c2CCN(C(=O)N2CCCC(c4cccc(Cl)c4F)C2)C3C(=O)Nc2ccc(C(=O)O)cc2)CC1` (centres unmarked) [Example 326, 4-(2-(3-(3-Chloro-2-fluorophenyl)piperidine-1-carbonyl)-5-(4-methoxypiperidin-1-yl)-1,2,3,4-tetrahydroisoquinoline-1-carboxamido)benzoic acid, TFA salt], the Ki in experiment [1] (measured at 37° C. (*)) is greater than 2000 nM; in experiment [2] it was 330 nM.
In the case of `O=C(O)c1ccc(NC(=O)C2c3cccc(N4CCC(N5CCCC5=O)CC4)c3CCN2C(=O)c2cn(-c3cccc(Cl)c3F)nn2)cc1` (centres unmarked) [Example 72, 4-(2-(1-(3-chloro-2-fluorophenyl)-1H-1,2,3-triazole-4-carbonyl)-5-(4-(2-oxopyrrolidin-1-yl)piperidin-1-yl)-1,2,3,4-tetrahydroisoquinoline-1-carboxamido)benzoic acid, TFA salt], the Ki in experiment [1] (setting [4]) was 13.8 nM; in experiment [2] (setting [3]), less than 5 nM.
On to `O=C(O)c1ccc(NC(=O)C2c3cccc(N4CCN(C5COC5)CC4)c3CCN2C(=O)c2cn(-c3cccc(Cl)c3F)nn2)cc1` (centres unmarked) [Example 226, 4-(2-(1-(3-Chloro-2-fluorophenyl)-1H-1,2,3-triazole-4-carbonyl)-5-(4-(oxetan-3-yl)piperazin-1-yl)-1,2,3,4-tetrahydroisoquinoline-1-carboxamido)benzoic acid, TFA salt], for which the Ki in experiment [1] (setting [4]) was 7.65 nM; in experiment [2] (setting [3]) it was less than 5 nM.
Regarding `Cc1c2c(nn1C)CCN(C(=O)c1cn(-c3cccc(Cl)c3F)nn1)C2C(=O)Nc1ccc(C(=O)O)cc1` (centres unmarked) [Example 222, 4-(5-(1-(3-Chloro-2-fluorophenyl)-1H-1,2,3-triazole-4-carbonyl)-2,3-dimethyl-4,5,6,7-tetrahydro-2H-pyrazolo[4,3-c]pyridine-4-carboxamido)benzoic acid], the Ki in experiment [1] (setting [4]) was 10.4 nM; in experiment [2] (setting [3]) it was 30 nM.
Turning to `CN(C)C1CCN(c2cccc3c2CCN(C(=O)c2cn(-c4cccc(Cl)c4F)nn2)[C@H]3C(=O)Nc2ccc(C(N)=O)cc2)CC1` [Example 100, (R)-N-(4-Carbamoylphenyl)-2-(1-(3-chloro-2-fluorophenyl)-1H-1,2,3-triazole-4-carbonyl)-5-(4-(dimethylamino)piperidin-1-yl)-1,2,3,4-tetrahydroisoquinoline-1-carboxamide, bis-TFA salt], the Ki in experiment [1] (setting [4]) was 494 nM; in experiment [2] (setting [3]), 289 nM.
For the compound `CN(C)C(=O)C1CCN(c2cccc3c2CCN(C(=O)C2CC(c4cccc(Cl)c4F)=NO2)C3C(=O)Nc2ccc(C(=O)O)cc2)CC1` (single isomer, unassigned) [Example 278, 4-(2-(3-(3-chloro-2-fluorophenyl)-4,5-dihydroisoxazole-5-carbonyl)-5-(4-(dimethylcarbamoyl)piperidin-1-yl)-1,2,3,4-tetrahydroisoquinoline-1-carboxamido)benzoic acid, TFA salt], the Ki in experiment [1] (setting [5]) was 1.98 nM; in experiment [2] (setting [3]) it was less than 5 nM.
With `O=C(O)c1ccc(NC(=O)C2c3cccc(F)c3CCN2C(=O)c2cn(-c3cccc(Cl)c3F)nn2)cc1` (centres unmarked) [Example 195, 4-(2-(1-(3-Chloro-2-fluorophenyl)-1H-1,2,3-triazole-4-carbonyl)-5-fluoro-1,2,3,4-tetrahydroisoquinoline-1-carboxamido)benzoic acid], the Ki in experiment [1] (setting [4]) stood at 30.9 nM; in experiment [2] (setting [3]), 40.1 nM.
On to `O=C(O)c1ccc(NC(=O)C2c3cccc(-c4cnc(O)nc4)c3CCN2C(=O)c2cn(-c3cccc(Cl)c3F)nn2)cc1` (centres unmarked) [Example 34, 4-(2-(1-(3-chloro-2-fluorophenyl)-1H-1,2,3-triazole-4-carbonyl)-5-(2-hydroxypyrimidin-5-yl)-1,2,3,4-tetrahydroisoquinoline-1-carboxamido)benzoic acid], for which the values for the Ki in experiment [1] (setting [4]) and in experiment [2] were 0.46 nM and less than 5 nM, respectively.
As to `COc1ncc(-c2cccc3c2CCN(C(=O)c2cn(-c4cccc(Cl)c4F)nn2)C3C(=O)Nc2ccc(C(=O)O)cc2)cn1` (centres unmarked) [Example 31, 4-(2-(1-(3-chloro-2-fluorophenyl)-1H-1,2,3-triazole-4-carbonyl)-5-(2-methoxypyrimidin-5-yl)-1,2,3,4-tetrahydroisoquinoline-1-carboxamido)benzoic acid], the Ki in experiment [1] (setting [4]) was 19.9 nM; in experiment [2], less than 5 nM.
`CN(C)C1CCN(c2cccc3c2CCN(C(=O)c2cn(-c4cccc(Cl)c4F)nn2)[C@H]3C(=O)Nc2ccc(-c3cn[nH]c3)cc2)CC1` [Example 103, (R)-N-(4-(1H-Pyrazol-4-yl)phenyl)-2-(1-(3-chloro-2-fluorophenyl)-1H-1,2,3-triazole-4-carbonyl)-5-(4-(dimethylamino)piperidin-1-yl)-1,2,3,4-tetrahydroisoquinoline-1-carboxamide, bis-TFA salt]: the Ki is 34 nM in experiment [1] (setting [4]) and 17.9 nM in experiment [2] (setting [3]).
Consider `NS(=O)(=O)c1cccc(-c2cccc3c2CCN(C(=O)c2cn(-c4cccc(Cl)c4F)nn2)C3C(=O)Nc2ccc(C(=O)O)cc2)c1` (centres unmarked) [Example 155, 4-(2-(1-(3-chloro-2-fluorophenyl)-1H-1,2,3-triazole-4-carbonyl)-5-(3-sulfamoylphenyl)-1,2,3,4-tetrahydroisoquinoline-1-carboxamido)benzoic acid], for which the results for the Ki in experiment [1] (setting [4]) and in experiment [2] (setting [3]) were 23.9 nM and less than 5 nM, respectively.
On to `CN(C)C(=O)C1CCN(c2cccc3c2CCN(C(=O)c2cn(-c4cccc(Cl)c4F)nn2)[C@@H]3C(=O)Nc2ccc(C(=O)O)cc2)CC1` (single isomer, unassigned) [Example 58, TFA salt], for which the Ki in experiment [1] (setting [4]) was 3.24 nM; in experiment [2] (setting [3]) it was less than 5 nM.
With `O=C(O)c1ccc(NC(=O)[C@@H]2c3cccc(N4CCOCC4)c3CCN2C(=O)c2cnn(-c3cccc(Cl)c3F)c2)cc1` [Example 89, (S)-4-(2-(1-(3-Chloro-2-fluorophenyl)-1H-pyrazole-4-carbonyl)-5-morpholino-1,2,3,4-tetrahydroisoquinoline-1-carboxamido)benzoic acid, TFA salt], the results for the Ki in experiment [1] (setting [4]) and in experiment [2] (setting [3]) were 11.4 nM and less than 5 nM, respectively.
For the compound `COC1CCN(c2cccc3c2CCN(C(=O)c2nnn(-c4cccc(Cl)c4F)c2C)C3C(=O)Nc2ccc(-c3ncc[nH]3)cc2)CC1` (centres unmarked) [Example 140, N-(4-(1H-Imidazol-2-yl)phenyl)-2-(1-(3-chloro-2-fluorophenyl)-5-methyl-1H-1,2,3-triazole-4-carbonyl)-5-(4-methoxypiperidin-1-yl)-1,2,3,4-tetrahydroisoquinoline-1-carboxamide, 2 TFA salt], the Ki in experiment [1] (measured at 37° C. (*)) is 2370 nM; in experiment [2] (setting [3]) it was 39.7 nM.
With `COC1CCN(c2cccc3c2CCN(C(=O)C2CCN(c4cccc(Cl)c4F)C2)C3C(=O)Nc2ccc(C(=O)O)cc2)CC1` (centres unmarked) [Example 307, 4-(2-(1-(3-Chloro-2-fluorophenyl)pyrrolidine-3-carbonyl) 5-(4-methoxypiperidin-1-yl)-1,2,3,4-tetrahydroisoquinoline-1-carboxamido)benzoic acid, TFA salt], the Ki was determined as 593 nM in experiment [1] (setting [5]) and 165 nM in experiment [2] (setting [6]).
In the same order, the values of `COC1CCN(c2cccc3c2CCN(C(=O)C2CCN(c4cccc(Cl)c4F)C2)C3C(=O)Nc2ccc(C(=O)O)cc2)CC1` (centres unmarked) [Example 308, 4-(2-(1-(3-Chloro-2-fluorophenyl)pyrrolidine-3-carbonyl)-5-(4-methoxypiperidin-1-yl)-1,2,3,4-tetrahydroisoquinoline-1-carboxamido)benzoic acid, TFA salt] are 79.7 nM and 6.03 nM.
As to `CN(C)C1CCN(c2cccc3c2CCN(C(=O)c2cnn(-c4cccc(Cl)c4F)c2)[C@@H]3C(=O)Nc2ccc(C(=O)O)cc2)CC1` (single isomer, unassigned) [Example 52, bis-TFA salt], the values for the Ki in experiment [1] (setting [4]) and in experiment [2] (setting [3]) were 1.79 nM and less than 5 nM, respectively.
With `CN(C)C1CCN(c2cccc3c2CCN(C(=O)c2cn(-c4cccc(Cl)c4F)nn2)[C@@H]3C(=O)Nc2ccc(-c3cn[nH]c3)cc2)CC1` [Example 104, (S)-N-(4-(1H-Pyrazol-4-yl)phenyl)-2-(1-(3-chloro-2-fluorophenyl)-1H-1,2,3-triazole-4-carbonyl)-5-(4-(dimethylamino)piperidin-1-yl)-1,2,3,4-tetrahydroisoquinoline-1-carboxamide, bis-TFA salt], the Ki in experiment [1] (setting [4]) was 0.96 nM; in experiment [2] (setting [3]) it was less than 5 nM.

A word on the Ki: it is the equilibrium dissociation constant of an inhibitor or competing ligand from its target.
